From paper PMC8472512, “Synthesis and Biochemical Evaluation of Baicalein Prodrugs” (Pharmaceutics, 2021)
In brackets after ≈: the same amount, converted by molar mass.

What was measured:
[1] = Metabolic stability in mouse liver S9 fractions; assay type: in vitro ADME; conditions: presence of the cofactor mixture (NADPH, UDPGA, PAPS, GSH), 37 °C, 60 min
Experimental: Working solutions of the test compounds (baicalein, 7-EC, and compounds 1–7) prepared in 50 vol% aqueous MeOH at 120 μM were added in triplicate to a 200 mM tris buffer (pH 7.4) containing mouse liver S9 fractions (1 mg protein/mL), alamethicin (25 μg/mL) and MgCl2 (2 mM). The final concentration of test compound was 3 μM. This mixture was pre-incubated at 37 °C in a shaking water bath for 5 min followed by addition of a cofactor mixture to following final concentrations: 1 mM NADPH, 0.5 mM UDPGA, 0.1 mM PAPS and 2.5 mM GSH. A 50 μL aliquot was taken at 0, 15, 30 and 60 min from each incubation mixture. These samples were then treated in the same way as described above in Mouse plasma stability assay. The supernatant was analyzed by Agilent 6530 Q−TOF LC−MS/MS system in a positive auto MS/MS scan mode. The liquid chromatography was conducted in the same condition as described above in mouse plasma stability assay. The analytical data were analyzed using Agilent MassHunter Quantitative Analysis Software (version B.05.00). MS chromatograms were extracted using calculated exact masses ([M+H]^+) for the analytes. Peak area ratios of the analytes vs. IS on the extracted MS chromatograms were used to calculate % remaining values at each time points.

Mouse pharmacokinetics = assay type: in vivo, male ICR mice; conditions: mice
Experimental: Pharmacokinetic studies were conducted with male ICR mice (8 weeks old; 30–35 g body wt.) purchased from Koatech Company (Pyeongtaek, Korea), as reported previously. Intravenous dosing solutions were prepared in EtOH/20% aqueous HPβCD (10/90 vol%) at 2 and 3 mg/mL for baicalein and compound 2, respectively. Oral dosing solutions were prepared in EtOH/tween 80/20% aqueous HPβCD (10/10/80 vol%) at 1 and 1.5 mg/mL for baicalein and compound 2, respectively. Plasma sample analysis was performed as described above in mouse plasma stability assay.

[2] = Kinetic solubility in phosphate buffer (pH 7.4); assay type: physicochemical; conditions: aqueous buffer, kinetic from dmso stock; shake-flask, 0.1 M phosphate buffer (pH 7.4), triplicate
Experimental: Stock solutions of the test compounds (baicalein and compounds 1–7) prepared at 10 mM in DMSO were diluted with 0.1 M potassium phosphate buffer (pH 7.4) in Mini-UniPrep filter vial (PTFE membrane, 0.45 μm) to a final concentration of 500 µM. The mixture was then shaken at 800 rpm for 90 min at rt and filtered by slowly pressing the upper tube of the Mini-Uniprep vial. The filtrate (300 µL) was then transferred to an HPLC vial containing same volume of acetonitrile. Sample analysis was conducted as described above in Chemical stability assay.

[3] = logD7.4 by shake-flask method; assay type: physicochemical; conditions: 0.1 M phosphate buffer (pH 7.4), duplicate
Experimental: The assay was conducted as reported previously. Briefly, 100 µM test solutions were prepared by diluting 10 mM stock solutions of the test compounds (baicalein and compounds 1–7) in 0.1 M potassium phosphate buffer (pH 7.4) saturated with 1-octanol. Standard solutions were prepared by diluting each test solution with the same volume of DMSO in HPLC vials. Partition solutions were prepared by mixing each test solution and 1-octanol saturated with 0.1 M potassium phosphate buffer (pH 7.4) at three different volume ratios, namely 1:0.02, 1:0.2 and 1:2, in HPLC vials. The partition solutions were then vortexed for 1 h at 1500 rpm at rt. The standard solutions and the aqueous phase (bottom layer) of each partition solution were analyzed directly from the HPLC vials as described above in Chemical stability assay. The logD7.4 values were calculated by the following equation: logD7.4=log(2×As/Ap−1)·Vt/Vo where As and Ap are, respectively, the peak areas of the standard and the aqueous phase of the partition solutions and Vt and Vo the volumes of test solution and 1-octanol of the partition solutions.

[4] = Chemical stability in physiologically-relevant solutions; assay type: physicochemical; conditions: 37 °C; for remaining at 4 h, 10 μM: at 4 h vs time 0
Experimental: Stock solutions of the test compounds (baicalein, compounds 1–7) prepared in MeOH at 10 mM were diluted in 0.1 N HCl and 0.1 M potassium phosphate buffer (pH 6.5 and 7.4) in triplicate to a final concentration of 10 μM. The mixtures were then incubated at 37 °C in a shaking water bath. Samples taken at 0, 1, 2, 3 and 4 h were analyzed by Thermo UltiMate 3000 series HPLC system. Chromatographic separation was performed on an Agilent Eclipse Plus C18 column (100 × 4.6 mm, 3.5 µm) kept at 40 °C with isocratic elution at a flow rate of 0.6 mL/min using a mixture of 0.1 vol% TFA in deionized water and acetonitrile as the mobile phase. The detection wavelengths were 277 and 270 nm for baicalein and compounds 1–7, respectively. Peak areas of the analytes on the UV chromatograms were used to calculate % remaining values at each time points.
The stability of baicalein and of the synthesized carbamate prodrugs (1–7) was determined in solutions mimicking gastric (0.1 N HCl, pH ~ 1), intestinal (pH 6.5 phosphate buffer), and physiological (pH 7.4 phosphate buffer) conditions. […]. […] […]. The degradation of the carbamate prodrugs was accompanied by the formation of baicalein under all conditions in this study (data not shown). Although the exact reason for this pH-dependent stability remains unknown, it is plausible that the side chains of amino acids somehow affect the hydrolysis of the carbamate bond of the prodrugs.

[5] = PAMPA (parallel artificial membrane permeability assay)
Experimental: (§1) The assay was conducted as reported previously [15]. The samples were analyzed as described below in mouse plasma stability assay.

in vitro = conditions: PAMPA
Experimental: as §1

[6] = male, ICR, mouse, iv, plasma analyte after single i.v. dose of baicalein 10 mg/kg
[7] = male, ICR, mouse, iv, plasma analyte after single i.v. dose of compound 2 15 mg/kg
[8] = male, ICR, mouse, po, plasma analyte after single p.o. dose of baicalein 10 mg/kg
[9] = male, ICR, mouse, po, plasma analyte after single p.o. dose of compound 2 50 mg/kg
[10] = pH 6.5 buffer (0.1 M potassium phosphate)
[11] = pH 7.4 buffer (0.1 M potassium phosphate)
[12] = male, ICR, mouse, in vivo, iv, plasma analyte after single i.v. dose of compound 2 15 mg/kg
[13] = male, ICR, mouse, in vivo, po, plasma analyte after single p.o. dose of compound 2 50 mg/kg

SMILES	solubility kinetic at 90 min [2]	logD [3]	half-life at 10 μM ([4]; buffer, pH 1, 0.1 N HCl, 10 μM)	remaining at 4 h, 10 μM ([4]; buffer, pH 1, 0.1 N HCl)	half-life at 10 μM [4, 10]	remaining at 4 h, 10 μM ([4]; pH 6.5 buffer)	half-life at 10 μM [4, 11]	remaining at 4 h, 10 μM ([4]; pH 7.4 buffer)	also measured
CCOc1ccc2ccc(=O)oc2c1 [7-Ethoxycoumarin]	–	–	–	–	–	–	–	–	metabolism in mouse liver S9 fractions [1]: rapid metabolism
O=C(O)[C@H]1O[C@@H](Oc2cc3oc(-c4ccccc4)cc(=O)c3c(O)c2O)[C@H](O)[C@@H](O)[C@@H]1O [Baicalin]	–	–	–	–	–	–	–	–	time plasma analyte was above the quantitation limit (Mouse pharmacokinetics; after single i.v. dose of 10 mg/kg baicalein): 24 h; time plasma analyte was above the quantitation limit (Mouse pharmacokinetics; after single p.o. dose of 10 mg/kg baicalein, 24 h time course): 24 h; AUC(0-inf) (Mouse pharmacokinetics; [6]): 2600 ± 510 ng·h/mL; AUC(0-t) (Mouse pharmacokinetics; [6]): 2450 ± 490 ng·h/mL; Cmax (Mouse pharmacokinetics; [6]): 4590 ± 870 ng/mL; Tmax (Mouse pharmacokinetics; [6]): 6 min; half-life (Mouse pharmacokinetics; [6]): 372 ± 168 min; AUC(0-inf) (Mouse pharmacokinetics; [7]): 500 ± 170 ng·h/mL; AUC(0-t) (Mouse pharmacokinetics; [7]): 200 ± 88 ng·h/mL; Cmax (Mouse pharmacokinetics; [7]): 90 ± 10 ng/mL; Tmax (Mouse pharmacokinetics; [7]): 6 min; half-life (Mouse pharmacokinetics; [7]): 396 ± 96 min; AUC(0-inf) (Mouse pharmacokinetics; [8]): 4890 ± 1400 ng·h/mL; AUC(0-t) (Mouse pharmacokinetics; [8]): 4420 ± 1440 ng·h/mL; Cmax (Mouse pharmacokinetics; [8]): 2260 ± 670 ng/mL; Tmax (Mouse pharmacokinetics; [8]): 12 min; half-life (Mouse pharmacokinetics; [8]): 378 ± 180 min; AUC(0-t) (Mouse pharmacokinetics; [9]): 680 ± 210 ng·h/mL; Cmax (Mouse pharmacokinetics; [9]): 130 ± 40 ng/mL; Tmax (Mouse pharmacokinetics; [9]): 360 ± 168 min
CC(C)C[C@H](NC(=O)Oc1cc2oc(-c3ccccc3)cc(=O)c2c(O)c1O)C(=O)O [Compound 1, (S)-2-((((5,6-Dihydroxy-4-oxo-2-phenyl-4H-chromen-7-yl)oxy)carbonyl)amino)-4-methylpentanoic acid]	443 ± 65.9 µM (≈ 189 µg/mL)	0.39	84 ± 18 min	17.4 ± 2.1%	> 240 min	92.9 ± 5%	> 240 min	98 ± 3.6%	–
CC(C)[C@H](NC(=O)Oc1cc2oc(-c3ccccc3)cc(=O)c2c(O)c1O)C(=O)O [Compound 2, (S)-2-((((5,6-Dihydroxy-4-oxo-2-phenyl-4H-chromen-7-yl)oxy)carbonyl)amino)-3-methylbutanoic acid]	479.2 ± 4.4 µM (≈ 198 µg/mL)	0.04	> 240 min	105 ± 3.5%	> 240 min	92.8 ± 4.2%	> 240 min	74.4 ± 6.6%	AUC(0-inf) (Mouse pharmacokinetics; [12]): 88700 ± 43200 ng·h/mL; AUC(0-t) (Mouse pharmacokinetics; [12]): 88600 ± 43200 ng·h/mL; Cmax (Mouse pharmacokinetics; [12]): 65100 ± 4290 ng/mL; Tmax (Mouse pharmacokinetics; [12]): 6 min; half-life (Mouse pharmacokinetics; [12]): 114 ± 36 min; clearance (Mouse pharmacokinetics; male, ICR, mouse, in vivo, iv, single i.v. dose of compound 2 15 mg/kg): 3.33 mL/min/kg; Vd (Mouse pharmacokinetics; male, ICR, mouse, in vivo, iv, single i.v. dose of compound 2 15 mg/kg, read-out: VSS): 0.4 ± 0.1 L/kg; AUC(0-inf) (Mouse pharmacokinetics; [13]): 5820 ± 1710 ng·h/mL; AUC(0-t) (Mouse pharmacokinetics; [13]): 5430 ± 1730 ng·h/mL; Cmax (Mouse pharmacokinetics; [13]): 2930 ± 590 ng/mL; Tmax (Mouse pharmacokinetics; [13]): 18 ± 5.4 min; half-life (Mouse pharmacokinetics; [13]): 102 ± 30 min; bioavailability (Mouse pharmacokinetics; male, ICR, mouse, in vivo, oral bioavailability of compound 2, p.o. 50 mg/kg vs i.v. 15 mg/kg): 2 ± 0.6%; Papp [5]: 0.04 ± 0.02 ×10⁻⁶ cm/s
CC[C@@H](C)[C@H](NC(=O)Oc1cc2oc(-c3ccccc3)cc(=O)c2c(O)c1O)C(=O)O [Compound 3, (2S,3R)-2-((((5,6-Dihydroxy-4-oxo-2-phenyl-4H-chromen-7-yl)oxy)carbonyl)amino)-3-methylpentanoic acid]	447 ± 36.9 µM (≈ 191 µg/mL)	0.25	> 240 min	98.9 ± 5%	> 240 min	90.2 ± 1.1%	> 240 min	80.1 ± 2.5%	–
C[C@@H](O)[C@H](NC(=O)Oc1cc2oc(-c3ccccc3)cc(=O)c2c(O)c1O)C(=O)O [Compound 4, (2S,3R)-2-((((5,6-Dihydroxy-4-oxo-2-phenyl-4H-chromen-7-yl)oxy)carbonyl)amino)-3-hydroxybutanoic acid]	347 ± 11.4 µM (≈ 144 µg/mL)	-0.05	> 240 min	109 ± 3.4%	168 ± 6 min	37.3 ± 0.2%	102 ± 6 min	20 ± 1%	–
O=C(N[C@@H](Cc1ccccc1)C(=O)O)Oc1cc2oc(-c3ccccc3)cc(=O)c2c(O)c1O [Compound 5, (S)-2-((((5,6-Dihydroxy-4-oxo-2-phenyl-4H-chromen-7-yl)oxy)carbonyl)amino)-3-phenylpropanoic acid]	375 ± 21.4 µM (≈ 173 µg/mL)	0.43	132 ± 24 min	27.4 ± 5.1%	> 240 min	78.5 ± 1.5%	> 240 min	70.2 ± 2.5%	metabolism in mouse liver S9 fractions [1]: metabolized much faster than the other prodrugs
C[C@H](NC(=O)Oc1cc2oc(-c3ccccc3)cc(=O)c2c(O)c1O)C(=O)O [Compound 6, (S)-2-((((5,6-Dihydroxy-4-oxo-2-phenyl-4H-chromen-7-yl)oxy)carbonyl)amino)propanoic acid]	400 ± 14.7 µM (≈ 154 µg/mL)	-0.18	> 240 min	90.2 ± 4.1%	> 240 min	81.8 ± 1.3%	> 240 min	76.6 ± 1.7%	Papp [5]: < 0.01 ×10⁻⁶ cm/s
O=C(O)CNC(=O)Oc1cc2oc(-c3ccccc3)cc(=O)c2c(O)c1O [Compound 7, 2-((((5,6-Dihydroxy-4-oxo-2-phenyl-4H-chromen-7-yl)oxy)carbonyl)amino)acetic acid]	357.1 ± 1.4 µM (≈ 133 µg/mL)	-0.39	90 ± 18 min	23.3 ± 3.6%	> 240 min	82.2 ± 1%	> 240 min	76.7 ± 0.3%	–
O=C(N[C@H](CO)[C@H](O)c1ccc([N+](=O)[O-])cc1)C(Cl)Cl [chloramphenicol]	–	–	–	–	–	–	–	–	Papp (in vitro): > 1 ×10⁻⁶ cm/s
NS(=O)(=O)c1cc2c(cc1Cl)NCNS2(=O)=O [hydrochlorothiazide]	–	–	–	–	–	–	–	–	Papp (in vitro): < 0.1 ×10⁻⁶ cm/s
COCCc1ccc(OCC(O)CNC(C)C)cc1 (centres unmarked) [metoprolol]	–	–	–	–	–	–	–	–	Papp (in vitro): > 1 ×10⁻⁶ cm/s
CC(C)(C)NCC(O)COc1cccc2c1CC(O)C(O)C2 (centres unmarked) [nadolol, reference compound]	–	–	–	–	–	–	–	–	Papp [5]: < 0.1 ×10⁻⁶ cm/s
CC(C)NCC(O)COc1cccc2ccccc12 (centres unmarked) [propranolol]	–	–	–	–	–	–	–	–	Papp (in vitro): > 1 ×10⁻⁶ cm/s
